The text below walks through data of patent US12398154B2, “Azaquinazoline pan-KRas inhibitors” (Mirati Therapeutics, Inc., priority 2020, dated 2025).

One assay has as its target KRas G12D (Homo sapiens, UniProt P01116, G12D). Kind of assay: biochemical.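 Note: TR-FRET displacement binding assay on KRas, read after a one-hour incubation at room temperature, IC50 fitted from percent-of-control values.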
Another assay deals with KRas G12V (Homo sapiens, UniProt P01116, G12V). Kind of assay: biochemical.
Chain of KRas G12V (P01116 1-169 isoform P01116-2 G12V): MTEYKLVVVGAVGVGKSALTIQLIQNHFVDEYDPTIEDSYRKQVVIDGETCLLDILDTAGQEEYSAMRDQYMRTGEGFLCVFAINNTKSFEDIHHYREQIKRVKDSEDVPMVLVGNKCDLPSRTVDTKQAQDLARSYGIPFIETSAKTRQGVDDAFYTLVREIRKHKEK
In the next assay the target is KRas G12R (Homo sapiens, UniProt P01116, G12R). Kind of assay: biochemical.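 Note: TR-FRET displacement assay of compound binding to KRas, read after one hour at room temperature, potency from a four-parameter fit of percent-of-control values.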
Chain of KRas G12R (P01116 1-169 isoform P01116-2 G12R): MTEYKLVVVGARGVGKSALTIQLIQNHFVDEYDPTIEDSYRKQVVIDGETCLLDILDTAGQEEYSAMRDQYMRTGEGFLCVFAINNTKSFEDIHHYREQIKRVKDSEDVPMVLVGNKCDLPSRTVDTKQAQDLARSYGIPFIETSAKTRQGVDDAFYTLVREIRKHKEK
The next assay has as its system pERK in MKN1 cells. Kind of assay: Inhibition of KRas phosphorylation of ERK (Cisbio HTRF pERK assay). The conditions noted are these: Homo sapiens, MKN-1, 3 h, read-out: Inhibition (HTRF IC50) of KRas-mediated Phosphorylation of ERK, MKN1.
In the next assay the test system is pERK in PSN1 cells. The description is as above. The conditions noted are these: Homo sapiens, PSN1, 3 h, read-out: Inhibition (HTRF IC50) of KRas-mediated Phosphorylation of ERK, PSN1.
Another assay relates to pERK in ASPC1 cells. The assay is described as above. The conditions noted are these: Homo sapiens, ASPC1, read-out: Inhibition (HTRF IC50) of KRas-mediated Phosphorylation of ERK, AsPC-1.
The subject of the next assay is pERK in H727 cells. Described as above. Conditions: Homo sapiens, NCI-H727, read-out: Inhibition (HTRF IC50) of KRas-mediated Phosphorylation of ERK, H727.
In a further assay the test system is pERK in A549 cells. Described as above. Conditions: Homo sapiens, A549, read-out: Inhibition (HTRF IC50) of KRas-mediated Phosphorylation of ERK, A549.
Another assay has as its system pERK in H460 cells. The description is as above. Conditions: Homo sapiens, NCI-H460, read-out: Inhibition (HTRF IC50) of KRas-mediated Phosphorylation of ERK, H460.
For a further assay, the system named is pERK in HCT116 cells. The assay is described as above. Conditions: Homo sapiens, HCT-116, read-out: Inhibition (HTRF IC50) of KRas-mediated Phosphorylation of ERK, HCT116.

Bounds are passed on as bounds.

Chain of KRas G12D (P01116 1-169 isoform P01116-2 G12D): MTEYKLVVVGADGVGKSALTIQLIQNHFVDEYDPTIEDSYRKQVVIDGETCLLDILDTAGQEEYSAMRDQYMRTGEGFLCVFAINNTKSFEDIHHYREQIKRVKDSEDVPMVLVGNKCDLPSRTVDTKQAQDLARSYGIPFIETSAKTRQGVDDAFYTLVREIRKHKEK

For the molecule `CCc1c(F)ccc2cc(O)cc(-c3ncc4c(N5CCCC6(CCC(O)C6)C5)nc(OC[C@@]56CCCN5C[C@H](F)C6)nc4c3F)c12` (stereo partly drawn) [Example 510, 7-(7-(8-ethyl-7-fluoro-3-hydroxynaphthalen-1-yl)-8-fluoro-2-(((2R,7aS)-2-fluorotetrahydro-1H-pyrrolizin-7a(5H)-yl)methoxy)pyrido[4,3-d]pyrimidin-4-yl)-7-azaspiro[4.5]decan-2-ol], the IC50 on KRas G12D stood at 10 nM; on KRas G12V, 8 nM; at KRas G12R, 9 nM; in the assay on pERK in MKN1 cells it was 73 nM; in the assay with pERK in PSN1 cells it was 5100 nM; in the assay with pERK in ASPC1 cells, 186 nM. Also, the IC50 is 388 nM with pERK in H727 cells, 515 nM in the assay with pERK in A549 cells, 397 nM in the assay with pERK in H460 cells and 954 nM in the assay on pERK in HCT116 cells.
Consider `CCc1c(F)ccc2cc(O)cc(-c3ncc4c(N5CCOCC6(COC6)C5)nc(OC[C@@]56CCCN5C[C@H](F)C6)nc4c3F)c12` [Example 480, 5-ethyl-6-fluoro-4-(8-fluoro-2-(((2R,7aS)-2-fluorohexahydro-1H-pyrrolizin-7a-yl)methoxy)-4-(2,6-dioxa-9-azaspiro[3.6]decan-9-yl)pyrido[4,3-d]pyrimidin-7-yl)naphthalen-2-ol], for which the IC50 against KRas G12D was 38 nM; at KRas G12V, 7 nM; against KRas G12R, 6 nM; in the assay on pERK in MKN1 cells, 6 nM; in the assay on pERK in PSN1 cells it was ≥ 10000 nM; in the assay on pERK in ASPC1 cells, 240 nM. The IC50 in the assay on pERK in H727 cells was determined as 100 nM; with pERK in A549 cells it was 215 nM; in the assay with pERK in H460 cells, 47 nM; with pERK in HCT116 cells, 111 nM.
For `C#Cc1c(F)ccc2cc(O)cc(-c3ncc4c(N5CC6CC(O)CC5C6)nc(OC[C@@]56CCCN5C[C@H](F)C6)nc4c3F)c12` (stereo partly drawn) [Example 390, 6-(7-(8-ethynyl-7-fluoro-3-hydroxynaphthalen-1-yl)-8-fluoro-2-(((2R,7aS)-2-fluorohexahydro-1H-pyrrolizin-7a-yl)methoxy)pyrido[4,3-d]pyrimidin-4-yl)-6-azabicyclo[3,2,1]octan-3-ol], the IC50 on KRas G12D is ≤ 2 nM; at KRas G12V, ≤ 2 nM; against KRas G12R, ≤ 2 nM; in the assay with pERK in MKN1 cells it was 8 nM; in the assay with pERK in PSN1 cells it was 748 nM; in the assay on pERK in ASPC1 cells it was 195 nM. The IC50 in the assay on pERK in H727 cells is 16 nM; in the assay on pERK in A549 cells it was 114 nM; in the assay on pERK in H460 cells it was 175 nM; in the assay on pERK in HCT116 cells it was 190 nM.
With `O=C1CC2(CCCN(c3nc(OC[C@@]45CCCN4C[C@H](F)C5)nc4c(F)c(-c5cc(O)cc6ccc(F)c(Br)c56)ncc34)C2)N1` (stereo partly drawn) [Example 405, 6-(7-(8-bromo-7-fluoro-3-hydroxynaphthalen-1-yl)-8-fluoro-2-(((2R,7aS)-2-fluorohexahydro-1H-pyrrolizin-7a-yl)methoxy)pyrido[4,3-d]pyrimidin-4-yl)-1,6-diazaspiro[3.5]nonan-2-one], the IC50 on KRas G12D was ≤ 2 nM; at KRas G12V, ≤ 2 nM; against KRas G12R, ≤ 2 nM; in the assay on pERK in MKN1 cells, 45 nM; in the assay with pERK in PSN1 cells it was 6730 nM; in the assay on pERK in ASPC1 cells, 238 nM. The IC50 in the assay on pERK in H727 cells is 114 nM; in the assay on pERK in A549 cells, 247 nM; in the assay on pERK in H460 cells, 155 nM; in the assay on pERK in HCT116 cells it was 2210 nM.
Take `CCc1c(F)ccc2cc(O)cc(-c3ncc4c(N5CCCC6(CNS(=O)(=O)N6)C5)nc(OCC5(CN(C)C)CC5)nc4c3F)c12` (stereo not shown) [Example 364, 7-(2-((1-((dimethylamino)methyl)cyclopropyl)methoxy)-7-(8-ethyl-7-fluoro-3-hydroxynaphthalen-1-yl)-8-fluoropyrido[4,3-d]pyrimidin-4-yl)-2-thia-1,3,7-triazaspiro[4.5]decane 2,2-dioxide]: the IC50 against KRas G12D is ≤ 2 nM; against KRas G12V, ≤ 2 nM; against KRas G12R it was ≤ 2 nM; in the assay with pERK in MKN1 cells, 26 nM; in the assay on pERK in PSN1 cells it was ≥ 10000 nM; with pERK in ASPC1 cells, 121 nM. The IC50 is 578 nM in the assay on pERK in H727 cells, 219 nM in the assay with pERK in A549 cells, 117 nM in the assay with pERK in H460 cells and 645 nM in the assay on pERK in HCT116 cells.
For `CCc1c(F)ccc2cc(O)cc(-c3ncc4c(N5CCCC6(COC(=O)N6)C5)nc(OC[C@@]56CCCN5C[C@H](F)C6)nc4c3F)c12` (stereo partly drawn) [Example 478, 7-(7-(8-ethyl-7-fluoro-3-hydroxynaphthalen-1-yl)-8-fluoro-2-(((2R,7aS)-2-fluorohexahydro-1H-pyrrolizin-7a-yl)methoxy)pyrido[4,3-d]pyrimidin-4-yl)-3-oxa-1,7-diazaspiro[4.5]decan-2-one], the half-maximal inhibitory concentration (IC50) is ≤ 2 nM at KRas G12D; ≤ 2 nM at KRas G12V; 5 nM at KRas G12R; 80 nM with pERK in MKN1 cells; ≥ 10000 nM in the assay with pERK in PSN1 cells; 192 nM with pERK in ASPC1 cells. Besides, the IC50 in the assay on pERK in H727 cells stood at 871 nM; in the assay on pERK in A549 cells, 1250 nM; with pERK in H460 cells, 713 nM; with pERK in HCT116 cells, 5430 nM.
For the molecule `CCc1c(F)ccc2cc(O)cc(-c3ncc4c(N5C[C@H](O)CC[C@@H](O)C5)nc(OC[C@@]56CCCN5C[C@H](F)C6)nc4c3F)c12` [Example 490, (3R,6R)-1-(7-(8-ethyl-7-fluoro-3-hydroxynaphthalen-1-yl)-8-fluoro-2-(((2R,7aS)-2-fluorohexahydro-1H-pyrrolizin-7a-yl)methoxy)pyrido[4,3-d]pyrimidin-4-yl)azepane-3,6-diol], the half-inhibitory concentration (IC50) against KRas G12D is ≤ 2 nM; on KRas G12V it was ≤ 2 nM; at KRas G12R, 3 nM; in the assay on pERK in MKN1 cells, 41 nM; with pERK in PSN1 cells, ≥ 10000 nM; in the assay with pERK in ASPC1 cells, 395 nM. In addition, the IC50 came out at 205 nM in the assay on pERK in H727 cells, 298 nM with pERK in A549 cells, 305 nM with pERK in H460 cells and 368 nM in the assay with pERK in HCT116 cells.
Take `CCc1c(F)ccc2cc(O)cc(-c3ncc4c(N5CCCC6(CCC6O)C5)nc(OC[C@@]56CCCN5C[C@H](F)C6)nc4c3F)c12` (stereo partly drawn) [Example 351, 6-(7-(8-ethyl-7-fluoro-3-hydroxynaphthalen-1-yl)-8-fluoro-2-(((2R,7aS)-2-fluorohexahydro-1H-pyrrolizin-7a-yl)methoxy)pyrido[4,3-d]pyrimidin-4-yl)-6-azaspiro[3.5]nonan-1-ol]: the IC50 came to 13 nM at KRas G12D; 15 nM against KRas G12V; 11 nM at KRas G12R; 48 nM in the assay with pERK in MKN1 cells; 7180 nM in the assay on pERK in PSN1 cells; 228 nM with pERK in ASPC1 cells. In addition, the IC50 in the assay with pERK in H727 cells turned out to be 551 nM; with pERK in A549 cells, 185 nM; in the assay on pERK in H460 cells it was 182 nM; in the assay on pERK in HCT116 cells, 346 nM.
Turning to `CCc1c(F)ccc2cc(O)cc(-c3ncc4c(N5CCCC6(CCC(F)(F)C6)C5)nc(OC[C@@]56CCCN5C[C@H](F)C6)nc4c3F)c12` (stereo partly drawn) [Example 509, 4-(4-(2,2-difluoro-7-azaspiro[4.5]decan-7-yl)-8-fluoro-2-(((2R,7aS)-2-fluorohexahydro-1H-pyrrolizin-7a-yl)methoxy)pyrido[4,3-d]pyrimidin-7-yl)-5-ethyl-6-fluoronaphthalen-2-ol], the IC50 against KRas G12D was 6 nM; at KRas G12V it was 6 nM; at KRas G12R, 12 nM; in the assay on pERK in MKN1 cells, 89 nM; in the assay with pERK in PSN1 cells, 6140 nM; with pERK in ASPC1 cells it was 144 nM. Besides, the IC50 with pERK in H727 cells was determined as 338 nM; with pERK in A549 cells, 211 nM; with pERK in H460 cells, 206 nM; in the assay with pERK in HCT116 cells, 314 nM.
With `C#Cc1c(F)ccc2cc(O)cc(-c3ncc4c(N5CCCn6nc(N)cc6C5)nc(OC[C@@]56CCCN5C[C@H](F)C6)nc4c3F)c12` [Example 394, 4-(4-(2-amino-7,8-dihydro-4H-pyrazolo[1,5-a][1,4]diazepin-5(6H)-yl)-8-fluoro-2-(((2R,7aS)-2-fluorohexahydro-1H-pyrrolizin-7a-yl)methoxy)pyrido[4,3-d]pyrimidin-7-yl)-5-ethynyl-6-fluoronaphthalen-2-ol], the IC50 is ≤ 2 nM against KRas G12D; ≤ 2 nM at KRas G12V; ≤ 2 nM against KRas G12R; 46 nM with pERK in MKN1 cells; ≥ 10000 nM in the assay on pERK in PSN1 cells; 158 nM in the assay with pERK in ASPC1 cells. The IC50 in the assay on pERK in H727 cells amounted to 368 nM; in the assay on pERK in A549 cells, 567 nM; with pERK in H460 cells, 1070 nM; with pERK in HCT116 cells, 1720 nM.
